For one series, the system named is Plasmopara viticola. The experiment in a line: D-1: Action against Plasmopara viticola on vines (residual-protective and residual-curative action). The note with it: vine seedlings, spray mixture 0.02% active ingredient, evaluated after 6 days at 95-100% relative humidity and 20° C. Format: in vivo. The procedure: D-1: Action against Plasmopara viticola on Vines a) Residual-Protective Action
Vine seedlings are sprayed at the 4- to 5-leaf stage with a spray mixture (0.02% active ingredient) prepared from a wettable powder formulation of the test compound. After 24 hours, the treated plants are infected with a sporangia suspension of the fungus. Fungus infestation is evaluated after incubation for 6 days at 95-100% relative humidity and 20° C. […]
b) Residual-Curative Action
Vine seedlings are infected at the 4- to 5-leaf stage with a sporangia suspension of the fungus. After incubation for 24 hours in a humidity chamber at 95-100% relative humidity and 20° C., the infected plants are dried and sprayed with a spray mixture (0.02% active ingredient) prepared from a wettable powder formulation of the test compound. After the spray coating has dried, the treated plants are placed in the humidity chamber again. Fungus infestation is evaluated 6 days after infection. […] Compounds A1.02, A1.03, A1.04, A1.03, A1.5, A1.06, A1.07, A1.09, A1.10, A1.13, A1.14, A1.15, A1.16, A1.21, A1.23.

Series [1] concerns Phytophthora. The experiment in a line: D-2: Action against Phytophthora on tomato plants (residual-protective and systemic action). It is filed as in vivo. The conditions noted are these: spray mixture 0.02% active ingredient (sprayed or watered), evaluated after 4-5 days at 90-100% relative humidity and 20° C. The procedure: D-2: Action Against Phytophthora on Tomato Plants
(§1) a) Residual-Protective Action
After a cultivation period of 3 weeks, tomato plants are sprayed with a spray mixture (0.02% active ingredient) prepared from a wettable powder formulation of the test compound. After 48 hours, the treated plants are infected with a sporangia suspension of the fungus. Fungus infestation is evaluated after incubation of the infected plants for 5 days at 90-100% relative humidity and 20° C.
After a cultivation period of 3 weeks, tomato plants are watered with a spray mixture (0.02% active ingredient based on the volume of the soil) prepared from a wettable powder formulation of the test compound. […] After 96 hours, the treated plants are infected with a sporangia suspension of the fungus. Fungus infestation is evaluated after incubation of the infected plants for 4 days at 90-100% relative humidity and 20° C. […] Compounds A1.02, A1.03, A1.04, A1.03, A1.05, A1.06, A1.07, A1.09, A1.10, A1.13, A1.14, A1.15, A1.16, A1.21, A1.23.

The test system of series [2] is Phytophthora. Briefly: D-3: Action against Phytophthora on potato plants (residual-protective and systemic action). It is filed as in vivo. The conditions noted are these: potato plants (Bintje variety), spray mixture 0.02% active ingredient (sprayed or watered), evaluated after 4 days at 90-100% relative humidity and 20° C. The procedure:
D-3 Action Against Phytophthora on Potato Plants
as §1
2-3 week old potato plants (Bintje variety) are sprayed with a spray mixture (0.02% active ingredient) prepared from a wettable powder formulation of the test compound. After 48 hours, the treated plants are infected with a sporangia suspension of the fungus. Fungus infestation is evaluated after incubation of the infected plants for 4 days at 90-100% relative humidity and 20° C.
2-3 week old potato plants (Bintje variety) are watered with a spray mixture (0.02% active ingredient based on the volume of the soil) prepared from a wettable powder formulation of the test compound. […] After 48 hours, the treated plants are infected with a sporangia suspension of the fungus. Fungus infestation is evaluated after incubation of the infected plants for 4 days at 90-100% relative humidity and 20° C. Fungal infestation is effectively controlled with compounds of Tables 1 to 37. Compounds A1.02, A1.03, A1.04, A1.03, A1.05, A1.06, A1.07, A1.09, A1.10, A1.13, A1.14, A1.15, A1.16, A1.21, A1.23.

For `COc1cc(CCNC(=O)[C@@H](NS(C)(=O)=O)C(C)C)ccc1OCCOc1ccc(F)cc1` [Compound A1.02], the Fungus infestation entry in the series with Plasmopara viticola, with Phytophthora [1] and with Phytophthora [2] was “completely inhibit fungal infestation” each time.
On to `COc1cc(CCNC(=O)[C@@H](NS(C)(=O)=O)C(C)C)ccc1OCCOc1cccc(F)c1` [Compound A1.76], for which the Fungus infestation result with Plasmopara viticola, with Phytophthora [1] and with Phytophthora [2] was “completely inhibit fungal infestation” each time.
`CCS(=O)(=O)N[C@H](C(=O)NCCc1ccc(OC/C=C\c2ccc(Cl)cc2)c(OC)c1)C(C)C` [Compound A3.03, Z-(S)-N-(2-{4-[3-(4-Chloro-phenyl)-allyloxy]-3-methoxy-phenyl}-ethyl)-2-ethanesulfonylamino-3-methyl-butyramide] displayed a melting point of 141 to 143 °C. For the same compound, in the series with Plasmopara viticola, the Fungus infestation result is listed as “completely inhibit fungal infestation”. Moreover, the Fungus infestation result in the series with Phytophthora [1] is “completely inhibit fungal infestation”. Besides, the Fungus infestation entry with Phytophthora [2] is listed as “completely inhibit fungal infestation”.
Turning to `CC[C@H](NS(=O)(=O)CC)C(=O)NCCc1ccc(OCCOc2ccc(F)cc2)c(OC)c1` [Compound A1.05], the Fungus infestation result in the series with Plasmopara viticola, in the series with Phytophthora [1] and with Phytophthora [2] was “completely inhibit fungal infestation” each time.
Regarding `CCS(=O)(=O)N[C@H](C(=O)NCCc1ccc(OCCOc2ccccc2)c(OC)c1)C(C)C` [Compound A1.06], the Fungus infestation entry in the series with Plasmopara viticola, with Phytophthora [1] and in the series with Phytophthora [2] was “completely inhibit fungal infestation” throughout.
`CCS(=O)(=O)N[C@H](C(=O)NCCc1ccc(OCC=Cc2ccc(Cl)cc2)c(OC)c1)C1CCC1` [Compound A1.107]: the Fungus infestation entry in the series with Plasmopara viticola, with Phytophthora [1] and in the series with Phytophthora [2] was “completely inhibit fungal infestation” each time.
Regarding `CCS(=O)(=O)N[C@H](C(=O)NCCc1ccc(OCCOc2cccc(C)c2)c(OC)c1)C(C)C` [Compound A1.25], the Fungus infestation entry in the series on Plasmopara viticola, in the series on Phytophthora [1] and with Phytophthora [2] was “completely inhibit fungal infestation” throughout.
As for `COc1cc(CCNC(=O)C(NS(C)(=O)=O)C(C)C)ccc1OC(C)COc1ccc(Cl)cc1` (mixture of isomers) [Compound A1.80], the Fungus infestation entry with Plasmopara viticola, with Phytophthora [1] and with Phytophthora [2] was “completely inhibit fungal infestation” in each case.
Regarding `COc1cc(CCNC(=O)[C@@H](NS(=O)(=O)N(C)C)C(C)C)ccc1OCCOc1ccc(F)cc1` [Compound A1.03], the Fungus infestation entry with Plasmopara viticola, in the series with Phytophthora [1] and in the series on Phytophthora [2] was “completely inhibit fungal infestation” each time.
`CCC[C@H](NS(=O)(=O)CC)C(=O)NCCc1ccc(OCCOc2ccc(Cl)cc2)c(OC)c1` [Compound A1.16]: the Fungus infestation result with Plasmopara viticola, with Phytophthora [1] and with Phytophthora [2] was “completely inhibit fungal infestation” throughout.
With `CCS(=O)(=O)N[C@H](C(=O)NCCc1ccc(OC/C=C/c2ccc(Cl)cc2)c(OC)c1)C(C)C` [Compound A2.03], the Fungus infestation result in the series on Plasmopara viticola, in the series on Phytophthora [1] and in the series on Phytophthora [2] was “completely inhibit fungal infestation” throughout.
Turning to `COc1cc(CCNC(=O)[C@@H](NS(C)(=O)=O)C(C)C)ccc1OCCOc1ccccc1` [Compound A1.07], the Fungus infestation entry in the series on Plasmopara viticola, with Phytophthora [1] and in the series on Phytophthora [2] was “completely inhibit fungal infestation” throughout.
With `CCC[C@H](NS(=O)(=O)CC)C(=O)NCCc1ccc(OCCOc2ccccc2)c(OC)c1` [Compound A1.09], the Fungus infestation result with Plasmopara viticola, in the series with Phytophthora [1] and with Phytophthora [2] was “completely inhibit fungal infestation” each time.
Consider `CCS(=O)(=O)N[C@H](C(=O)NCCc1ccc(OC/C=C/c2ccccc2F)c(OC)c1)C(C)C` [Compound A2.09], for which the Fungus infestation entry with Plasmopara viticola, in the series on Phytophthora [1] and in the series with Phytophthora [2] was “completely inhibit fungal infestation” in each case.
On to `COc1cc(CCNC(=O)[C@@H](NS(C)(=O)=O)C(C)C)ccc1OCCOc1ccc(Cl)c(Cl)c1` [Compound A1.75], for which the Fungus infestation entry in the series on Plasmopara viticola, with Phytophthora [1] and in the series with Phytophthora [2] was “completely inhibit fungal infestation” in each case.
Consider `CCS(=O)(=O)N[C@H](C(=O)NCCc1ccc(OCCOc2ccc(Cl)cc2)c(OC)c1)C(C)C` [Compound A1.13], for which the Fungus infestation entry with Plasmopara viticola, in the series with Phytophthora [1] and in the series on Phytophthora [2] was “completely inhibit fungal infestation” throughout.
On to `CCS(=O)(=O)N[C@H](C(=O)NCCc1ccc(OC/C=C\c2ccccc2)c(OC)c1)C(C)C` [Compound A3.02], for which the Fungus infestation result in the series with Plasmopara viticola, with Phytophthora [1] and with Phytophthora [2] was “completely inhibit fungal infestation” throughout.
With `CCS(=O)(=O)N[C@H](C(=O)NCCc1ccc(OCCOc2ccc(F)cc2)c(OC)c1)C(C)C`, the melting point was in the range of 124 to 125 °C.

A word on the melting point: it is the temperature of the solid-liquid transition.

For the origin of these results see patent US20020082452A1, “alpha-sulfin-and alpha-sulfonamino acid amides” (priority 1998, published 2002).
